{"source": "PubChem BioAssay AID652059", "about": "(Broad Institute, 2013)", "system": "D54 ERlucT glioma cells, NLG luciferase reporter, 24 h", "experiment": "blockers of NLG in glioma reporter line – cell-based, D54 ERlucT glioma, luciferase, dry powder, set 5, dose response (AID 652059)", "data": [{"molecule": "CC(=O)N[C@H]1[C@@H](O[C@@H]2OC(C[C@@H](O)C3O[C@@H](n4ccc(=O)[nH]c4=O)[C@H](O)[C@@H]3O)[C@H](O)[C@H](O)[C@H]2NC(=O)/C=C/CCCCCCCCCCC(C)C)O[C@H](CO)[C@@H](O)[C@@H]1O", "note": "(stereo partly specified)", "values": [{"measurement": "AC40", "result": 0.52, "unit": "µM"}]}]}
